Values joined by “and” are separate entries in the source; they are usually repeats but may differ in a detail not shown here. Equal values may be shown once.
Experiments:
[1] = tested on: patients with primary CNS and advanced solid tumors; test: Phase I dose-escalation trial of oral AR-42: safety and tolerability; type: in vivo
[2] = tested on: Burkitt lymphoma mouse models; settings: cited from earlier work
[3] = tested on: xenograft and allograft schwannoma; settings: cited from earlier work
[4] = tested on: schwannoma and meningioma cell lines; settings: cited from earlier work
[5] = Plasma pharmacokinetics, LC-MS/MS, non-compartmental analysis; type: in vivo, human; settings: for AUC / Cmax: oral; for AUC: Median AUC; for Cmax: Median Cmax
[6] = tested on: primary CNS and advanced solid tumors; test: Phase I trial: response evaluation; type: in vivo, human
[7] = human, plasma, patients without grade 3 or 4 toxicity

CC(C)[C@H](C(=O)Nc1ccc(C(=O)NO)cc1)c1ccccc1 [AR-42]
Lymphopenia, treatment-related adverse event, All grades ([1]; N=17, 30-80 mg): 7 n (%) and 7 (41.2%) n (%) | Lymphopenia, treatment-related adverse event, Grade 1–2 ([1]; N=17, 30-80 mg): 4 (23.5%) n (%) | Lymphopenia, treatment-related adverse event, Grade 3–4 ([1]; N=17, 30-80 mg): 3 (17.6%) n (%) | Myalgia, treatment-related adverse event, All grades ([1]; N=17, 30-80 mg): 4 (23.5%) n (%) | Myalgia, treatment-related adverse event, Grade 1–2 ([1]; N=17, 30-80 mg): 4 (23.5%) n (%) | Nausea, treatment-related adverse event, All grades ([1]; N=17, 30-80 mg): 10 n (%) and 10 (58.8%) n (%) | Nausea, treatment-related adverse event, Grade 1–2 ([1]; N=17, 30-80 mg): 8 (47.1%) n (%) | Nausea, treatment-related adverse event, Grade 3–4 ([1]; N=17, 30-80 mg): 2 (11.8%) n (%) | Neutropenia, treatment-related adverse event, All grades ([1]; N=17, 30-80 mg): 7 n (%) and 7 (41.2%) n (%) | Neutropenia, treatment-related adverse event, Grade 1–2 ([1]; N=17, 30-80 mg): 7 (41.2%) n (%) | Psychiatric disorder, treatment-related adverse event, All grades ([1]; N=17, 30-80 mg): 1 (5.9%) n (%) | Psychiatric disorder, treatment-related adverse event, Grade 3–4 ([1]; N=17, 30-80 mg): 1 (5.9%) n (%) | Thrombocytopenia, treatment-related adverse event, All grades ([1]; N=17, 30-80 mg): 13 (76.5%) n (%) | Thrombocytopenia, treatment-related adverse event, Grade 1–2 ([1]; N=17, 30-80 mg): 8 (47.1%) n (%) | Thrombocytopenia, treatment-related adverse event, Grade 3–4 ([1]; N=17, 30-80 mg): 5 (29.4%) n (%) | Thromboembolic event, treatment-related adverse event, All grades ([1]; N=17, 30-80 mg): 1 (5.9%) n (%) | Thromboembolic event, treatment-related adverse event, Grade 3–4 ([1]; N=17, 30-80 mg): 1 (5.9%) n (%) | Vomiting, treatment-related adverse event, All grades ([1]; N=17, 30-80 mg): 4 (23.5%) n (%) | Vomiting, treatment-related adverse event, Grade 1–2 ([1]; N=17, 30-80 mg): 4 (23.5%) n (%) | Weight loss, treatment-related adverse event, All grades ([1]; N=17, 30-80 mg): 3 (17.6%) n (%) | Weight loss, treatment-related adverse event, Grade 1–2 ([1]; N=17, 30-80 mg): 2 (11.8%) n (%) | Weight loss, treatment-related adverse event, Grade 3–4 ([1]; N=17, 30-80 mg): 1 (5.9%) n (%) | Only grade 4 TRAE ([1]; at the 80 mg dose): psychosis | No. of dose delays ([1]; dose level 1A, 30 mg): 0 | No. of dose reductions ([1]; dose level 1A, 30 mg): 0 | Description of DLT ([1]; dose level 1B, 60 mg): Thrombocytopenia (grade 3) | No. of dose delays ([1]; dose level 1B, 60 mg): 4 | No. of dose reductions ([1]; dose level 1B, 60 mg): 2 | No. of patients with a DLT ([1]; dose level 1B, 60 mg, 7 patients): 1 | No. of dose delays ([1]; dose level 2A, 60 mg): 0 | No. of dose reductions ([1]; dose level 2A, 60 mg): 0 | No. of patients with a DLT ([1]; dose level 2A, 60 mg, 2 patients): 0 | No. of dose delays ([1]; dose level 2B, 80 mg): 0 | No. of dose reductions ([1]; dose level 2B, 80 mg): 0 | No. of patients with a DLT ([1]; dose level 2B, 80 mg, 2 patients): 1 | Patients who developed a grade 4 toxicity ([1]; during cycle one, N=17): 5.9% | Patients who developed at most a grade 1 toxicity ([1]; during cycle one, N=17): 23.5% | Patients who developed at most a grade 2 toxicity ([1]; during cycle one, N=17): 29.4% | Patients who developed at most a grade 3 toxicity ([1]; during cycle one, N=17): 29.4% | Patients who experienced no toxicities ([1]; during cycle one, N=17): 11.8% | No. of dose delays ([1]; expansion cohort, 60 mg): 0 | No. of dose reductions ([1]; expansion cohort, 60 mg): 0 | Grade 4 thrombocytopenia ([1]; in vivo): no grade 4 thrombocytopenia | Recommended phase II dose (RP2D) ([1]; oral, three times weekly, three weeks of a 28-day cycle): 60 mg | Clinically significant bleeding events ([1]; with thrombocytopenia): no clinically significant bleeding events | Activity compared with vorinostat [2]: superior to that of vorinostat | Schwannoma growth [3]: suppressed peripherally implanted xenograft and allograft schwannoma growth | Proliferation of schwannoma and meningioma cell lines ([4]; cell cycle arrest at G2 and apoptosis): suppressed proliferation | AKT phosphorylation [4]: decreased AKT phosphorylation | Accumulation ([5]; 3 times weekly for three weeks of a four-week cycle): did not accumulate | Cmax, AUC0–24 and AUC0–∞ between Day 1 and Day 19 ([5]; cycle 1): remained consistent | AUC ([5]; human, plasma, patients with a grade 3 or 4 toxicity during cycle 1 and 2, p=0.036): 16.4 µM·h | AUC [5, 7]: 11.3 µM·h | Cmax ([5]; human, plasma, patients with a grade 3 or 4 toxicity during cycle 1 and 2, p=0.0016): 1540 nM | Cmax [5, 7]: 1040 nM | half-life ([5]; human, plasma, po): 8 to 13 h | AUC0–24 and AUC0–∞ higher in 80 mg dose group compared to 60 mg dose group ([5]; only two patients at 80 mg): roughly 50% | Median CL/F ([5]; patients with a grade 3 or 4 toxicity during cycle 1 and 2, p=0.0745): 10.48 L/h | Median CL/F ([5]; patients without grade 3 or 4 toxicity): 15.8 L/h | Stable disease ([6]; 30 mg): 1 of 3 | Stable disease ([6]; 60 mg): 7 of 11 | Follow up without progression ([6]; 1 of 5 patients with NF2 or meningioma): > 27 months | Best response stable disease, proportion of patients ([6]; 15 evaluable patients, 95% CI 26.6–78.7): 53% | Stable disease ([6]; all evaluable patients): 8 of 15 | Median PFS ([6]; evaluable NF2 or meningioma (n=5), 60 mg, 95% CI 1.9-not reached): 9.1 months | Median PFS ([6]; non-CNS solid tumors (n=10), 95% CI 0.1–5.0): 1.7 months | Median PFS ([6]; overall cohort, 95% CI 1.2–9.1): 3.6 months

Source: PMC8162746 (Cancer chemotherapy and pharmacology, 2021)
